In patent publication US20090270382A1, “Soluble epoxide hydrolase inhibitors” (Arete Therapeutics, Inc., priority 2008, published 2009):

How the values were obtained:
[1] = tested on: soluble epoxide hydrolase (sEH); assay: Fluorescent assay for mouse and human soluble epoxide hydrolase (CMNPC substrate); format: biochemical
Excerpt: Fluorescent Assay for Mouse and Human Soluble Epoxide Hydrolase Recombinant mouse sEH (MsEH) and human sEH (HsEH) were produced in a baculovirus expression system as previously reported. Grant et al., J. Biol. Chem., 268:17628-17633 (1993); Beetham et al., Arch. Biochem. Biophys., 305:197-201 (1993). The expressed proteins were purified from cell lysate by affinity chromatography. Wixtrom et al., Anal. Biochem., 169:71-80 (1988). Protein concentration was quantified using the Pierce BCA assay using bovine serum albumin as the calibrating standard. The preparations were at least 97% pure as judged by SDS-PAGE and scanning densitometry. They contained no detectable esterase or glutathione transferase activity which can interfere with the assay. The assay was also evaluated with similar results in crude cell lysates or homogenate of tissues. The IC50s for each inhibitor were according to the following procedure: […] Jones P. D. et. al.; Analytical Biochemistry 2005; 343: pp. 66-75) Bis/Tris HCl 25 mM pH 7.0 containing 0.1 mg/mL of BSA (buffer […] at 0.25 mM in DMSO. Mother solution of enzyme in buffer A (Mouse sEH at 6 μg/mL and Human sEH at 5 μg/mL). Inhibitor dissolved in DMSO at the appropriate concentration. In a black 96 well plate, fill all the wells with 150 μL of buffer A. Add 2 μL of DMSO in well A2 and A3, and then add 2 μL of inhibitor solution in A1 and A4 through A12. Add 150 μL of buffer A in row A, then mix several time and transfer 150 μL to row B. Repeat this operation up to row H. The 150 μL removed from row H is discarded. Add 20 μL of buffer A in column 1 and 2, then add 20 μL of enzyme solution to column 3 to 12. Incubate the plate for 5 minutes in the plate reader at 30° C. During incubation prepare the working solution of substrate by mixing 3.68 mL of buffer A (4×0.920 mL) with 266 μL (2×133 μL) of substrate solution). At t=0, add 30 μL of working substrate solution with multi-channel pipette labeled “Briggs 303” and start the reading ([S]final: 5 μM). […] The velocities are used to analyze and calculate the IC50s.

melting point | % Inhibition ([1]; compound concentration 200 nM) | % Inhibition ([1]; compound concentration 2000 nM) | Compound
206 to 208 °C | 97% |  | Cc1ccc(C(=O)N2CCC(NC(=O)Nc3ccc(OC(F)(F)F)cc3)CC2)cn1 [Compound 4, 1-(1-(6-methylnicotinoyl)piperidin-4-yl)-3-(4-(trifluoromethoxy)phenyl)urea]
265 to 268 °C |  | 100% | O=C(Nc1ccc(OC(F)(F)F)cc1)NC1CCN(C(=O)c2ccc(N3CCOCC3)nc2)CC1 [Compound 15, 1-(1-(6-morpholinonicotinoyl)pipendin-4-yl)-3-(4-(trifluoromethoxy)phenyl)urea]
107 to 109 °C | 95% |  | Cc1ncccc1C(=O)N1CCC(NC(=O)Nc2ccc(OC(F)(F)F)cc2)CC1 [Compound 3, 1-(1-(2-methylnicotinoyl)piperidin-4-yl)-3-(4-(trifluoromethoxy)phenyl)urea]
89 to 91 °C |  | 99% | O=C(Nc1ccc(OC(F)(F)F)cc1)NC1CCN(C(=O)c2cnccc2C(F)(F)F)CC1 [Compound 13, 1-(4-(trifluoromethoxy)phenyl)-3-(1-(4-(trifluoromethyl)nicotinoyl)piperidin-4-yl)urea]
213 to 215 °C |  | 97% | O=C(Nc1ccc(OC(F)(F)F)cc1)NC1CCN(C(=O)c2ccc(Cl)cn2)CC1 [Compound 18, 1-(1-(5-chloropicolinoyl)piperidin-4-yl)-3-(4-(trifluoromethoxy)phenyl)urea]
230 to 232 °C |  | 100% | O=C(Nc1ccc(OC(F)(F)F)cc1)NC1CCN(C(=O)c2ccc(-c3ccccc3)nc2)CC1 [Compound 14, 1-(1-(6-phenylnicotinoyl)piperidin-4-yl)-3-(4-(trifluoromethoxy)phenyl)urea]
92 to 94 °C | 99% |  | COc1ncccc1C(=O)N1CCC(NC(=O)Nc2ccc(OC(F)(F)F)cc2)CC1 [Compound 5, 1-(1-(2-methoxynicotinoyl)piperidin-4-yl)-3-(4-(trifluoromethoxy)phenyl)urea]
200 to 202 °C |  | 99% | COc1ccc(C(=O)N2CCC(NC(=O)Nc3ccc(OC(F)(F)F)cc3)CC2)cn1 [Compound 9, 1-(1-(6-methoxynicotinoyl)piperidin-4-yl)-3-(4-(trifluoromethoxy)phenyl)urea]
217 to 219 °C | 96% |  | O=C(Nc1ccc(OC(F)(F)F)cc1)NC1CCN(S(=O)(=O)c2cccnc2)CC1 [Compound 6, 1-(1-(pyridin-3-ylsulfonyl)piperidin-4-yl)-3-(4-(trifluoromethoxy)phenyl)urea]
212 to 214 °C |  | 100% | CN1CCOc2cc(C(=O)N3CCC(NC(=O)Nc4ccc(OC(F)(F)F)cc4)CC3)cnc21 [Compound 17, 1-(1-(4-methyl-3,4-dihydro-2H-pyrido[3,2-b][1,4]oxazine-7-carbonyl)piperidin-4-yl)-3-(4-(trifluoromethoxy)phenyl)urea]
211 to 213 °C | 94% |  | O=C(Nc1ccc(OC(F)(F)F)cc1)NC1CCN(C(=O)c2cncc(C(=O)O)c2)CC1 [Compound 1, 5-(4-(3-(4-(trifluoromethoxy)phenyl)ureido)piperidine-1-carbonyl)nicotinic acid]
206 to 208 °C | 97% |  | O=C(Nc1ccc(OC(F)(F)F)cc1)NC1CCN(C(=O)c2ccc(C(F)(F)F)nc2)CC1 [Compound 2, 1-(4-(trifluoromethoxy)phenyl)-3-(1-(6-(trifluoromethyl)nicotinoyl)piperidin-4-yl)urea]
 |  | 99% | O=C(Nc1cccc(OC(F)(F)F)c1)NC1CCN(C(=O)c2cccnc2)CC1 [Compound 10, 1-(1-nicotinoylpiperidin-4-yl)-3-(3-(trifluoromethoxy)phenyl)urea]
 |  | 100% | O=C(Nc1ccc(OC(F)(F)F)cc1)NC1CCN(C(=O)Cc2ccccn2)CC1 [Compound 11, 1-(1-(2-(pyridin-2-yl)acetyl)piperidin-4-yl)-3-(4-(trifluoromethoxy)phenyl)urea]
156 to 157 °C |  | 98% | O=C(Nc1ccc(OC(F)(F)F)cc1)NC1CCN(C(=O)c2cncc(F)c2)CC1 [Compound 7, 1-(1-(5-fluoronicotinoyl)piperidin-4-yl)-3-(4-(trifluoromethoxy)phenyl)urea]
 |  | 100% | O=C(Nc1ccc(OC(F)(F)F)cc1)NC1CCN(C(=O)c2cccnc2)CC1 [Compound 12, 1-(1-nicotinoylpiperidin-4-yl)-3-(4-(trifluoromethoxy)phenyl)urea]
182 to 185 °C |  | 100% | O=C(Nc1ccc(OC(F)(F)F)cc1)NC1CCN(C(=O)c2ccc(Oc3ccccc3)nc2)CC1 [Compound 16, 1-(1-(6-phenoxynicotinoyl)piperidin-4-yl)-3-(4-(trifluoromethoxy)phenyl)urea]
 |  | 99% | O=C(Nc1ccc(OC(F)(F)F)cc1)NC1CCN(C(=O)c2ccncc2)CC1 [Compound 8, 1-(1-isonicotinoylpiperidin-4-yl)-3-(4-(trifluoromethoxy)phenyl)urea]
